The source of these data is EP4810494A1, “HPK1 DEGRADATION AGENT AND USE THEREOF IN FIELD OF MEDICINE” (Haisco Pharmaceutical Group Co., Ltd., priority 2023, dated 2025).

Molecules are shown by their SMILES. pIC50: −log10 of the molar value. Counter-ions that a name gives are not always drawn. Like-named read-outs stand apart in the source and are kept apart here.

A short description of data set [1]: Pharmacokinetic test in mice. Format: in vivo, ICR mice. To be noted: mouse, plasma, po, i. g., 10 mg/kg. As to the method: Test example 6: Pharmacokinetic test in mice
Experimental objective: In this experiment, a single dose of test substances was administered to ICR mice intravenously and intragastrically, the concentrations of the test compounds in plasma of mice were measured, and the pharmacokinetic characteristics and bioavailability of the test compounds in mice were evaluated.
Experimental animals: Male ICR mice, 20-35 g, purchased from Chengdu Dossy Experimental Animals Co., Ltd. (SCXK (CHUAN) 2020-030).
Experimental method: On the day of the experiment, the ICR mice were randomly grouped according to their body weights. The animals were fasted but with water available overnight before the administration, and fed 4 h after the administration.
Sampling: Blood was taken from the orbits of the mice at specified time points, and placed in an EDTAK2 centrifuge tube. Centrifugation was performed at 5000 rpm at 4°C for 10 min, and the plasma was collected.
Time points for plasma collection in G1 and G1-2 groups: 0, 5 min, 15 min, 30 min, 1 h, 2 h, 4 h, 7 h, and 24 h.
Time points for plasma collection in G2 and G2-2 groups: 0, 5 min, 15 min, 30 min, 1 h, 2 h, 4 h, 7 h, and 24 h.
Before analysis and detection, all the samples were stored at -60°C or lower. The samples were analysed quantitatively by LC-MS/MS. Table 6-1 PK data of test compound drug in mice

Data set [2] deals with T1, HPK1 kinase (Homo sapiens, UniProt Q92918).
T1 construct: purchased Carna 07-410
T1 sequence (Q92918 1-346 limits assumed): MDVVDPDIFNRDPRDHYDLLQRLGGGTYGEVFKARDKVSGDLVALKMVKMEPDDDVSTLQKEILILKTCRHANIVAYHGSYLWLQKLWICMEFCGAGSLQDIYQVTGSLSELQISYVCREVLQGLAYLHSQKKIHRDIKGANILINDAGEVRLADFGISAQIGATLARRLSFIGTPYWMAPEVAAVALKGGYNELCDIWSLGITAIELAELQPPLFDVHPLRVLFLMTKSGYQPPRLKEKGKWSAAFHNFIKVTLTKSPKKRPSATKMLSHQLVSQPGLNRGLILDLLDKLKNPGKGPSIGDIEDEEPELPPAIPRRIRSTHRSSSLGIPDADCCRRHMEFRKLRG
The data set is described as follows: HPK1 kinase assay (1 mM ATP). Format: biochemical. As to the method:
Test example 5: HPK1 kinase assay (1 mM ATP)
The kinase HPK1 (Carna, Cat.No 07-410) was prepared into 2× kinase solution using 1× kinase buffer. The substrate Fluorescein-PKC (Invitrogen, Cat. No. PV3506) and ATP (working concentration: 1 mM) (Sigma, Cat. No. 2383-5G) were prepared into 2× substrate solution using 1×kinase buffer. The detection reagent was diluted to 2-fold the final concentration using an antibody diluent. 100 nL of compounds at different concentrations and 5 µL of kinase solution were added to each well of a 384-well plate, and the mixture was incubated at room temperature for 10 minutes. After the incubation was completed, 5 µL of substrate solution was added to each well, and the resulting mixture was reacted at room temperature for 90 minutes. After the reaction was completed, 10 µL of detection reagent was added to each well to terminate the reaction, and the mixture was incubated at room temperature for 60 minutes. Fluorescence readings were detected using an Envision instrument with excitation at 320 nm and emission at 520 nm and 495 nm. IC50 value was calculated using XLFit excel add-in version 5.4.0.8 software. The calculation formula of the inhibition rate was shown in formula 5-1, wherein max is the Ratio of the DMSO control, min is the Ratio of the negative control without enzyme, and sample is the Ratio of the compound. Ratio = RFU520nm /RFU495nm [formula] Inhibition% = (max−sample)/(max−min) × 100% [formula] Table 5-1 Inhibitory activity of test compounds against HPK1 kinase

In data set [3] the target is T2, HPK1 protein (Homo sapiens, UniProt Q92918).
T2 construct: host or cells: Jurkat cells
The data set is described as follows: Detection of HPK1 protein expression level in Jurkat cells (24 h). Format: cell-based. To be noted: 24 hours incubation. As to the method:
Test example 4: Detection of HPK1 protein expression level in Jurkat cells (24 h)
Jurkat cells from ATCC were placed in a RPMI-1640 complete medium (supplemented with 10% FBS and 1% penicillin-streptomycin solution) and cultured at 37°C and 5% CO2. The cells in the logarithmic growth phase were collected, the cell density was adjusted to 5 × 10^5 cells/well with the culture medium, and the cells were added to a 6-well cell culture plate at a volume of 1 mL/well. The compound to be tested was prepared to 2-fold the final concentration, 1 mL of the compounds at different concentrations were added to administration wells, a medium containing 0.2% DMSO was added to control wells, and the plate was incubated at 37°C and 5% CO2 for 24 hours. The cells were collected into a 1.5 mL centrifuge tube, 30 µL of RIPA lysis buffer (containing 1X protease inhibitor cocktail) was added, and the cells were lysed on ice for 15 minutes and centrifuged at 12000 rpm/min at 4°C for 10 minutes. The supernatant was collected and the protein content was determined using the BCA method. The protein sample to be tested was diluted to 0.2 mg/mL, HPK1 was detected using a fully automated protein expression quantitative analyser (ProteinSimple), and the internal reference protein was β-actin (all antibodies were from CST). The software (Compass for SW) of the fully automated protein expression quantitative analyser was used to process the raw data and calculate the peak area after internal reference normalisation and the HPK1 degradation rate relative to the control group. The HPK1 degradation rate was calculated according to formula 4-1, where Aadministration well is the relative peak area of the administration group after internal reference normalisation, and Acontrol well is the relative peak area of the vehicle control group after internal reference normalisation. DC50 values were calculated using a four-parameter non-linear fitting model in Graphpad 8.3.0 software. HPK1_degradation % = 100−(Aadministration well/Acontrol well×100%) [formula] Table 4-1 Degradation activity of test compounds against HPK1 protein in Jurkat cells (24 h)

Data set [4] is described as follows: Pharmacokinetic test in rats. Format: in vivo, SD rats. To be noted: rat, plasma. How it is done:
Test example 7: Pharmacokinetic test in rats
Experimental animals: Male SD rats, 180-200 g, purchased from Chengdu Dossy Experimental Animals Co., Ltd. with the laboratory animal production license number of SCXK (CHUAN) 2020-030.
Experimental design: on the day of the experiment, the SD rats were randomly grouped according to their body weights. The animals were fasted but with water available overnight before the administration, and fed 4 h after the administration.
Vehicle for intragastric administration: 5% Solutol+5% TPGS+30% PEG400+60% (20% SBE-β-CD)
Blood was taken from the orbits of the […] at specified time points, and placed in an EDTAK2 centrifuge tube. Centrifugation was performed at 5000 rpm for 10 min, and the plasma was collected.
Blood sampling time points for the intravenous administration group were: 0, 5 min, 15 min, 30 min, 1 h, 2 h, 4 h, 6 h, 8 h and 24 h; blood sampling time points for the intragastric administration group were: 0, 5 min, 15 min, 30 min, 1 h, 2 h, 4 h, 6 h, 8 h and 24 h. Before analysis and detection, all the samples were stored at - 60°C or lower. The samples were analysed quantitatively by LC-MS/MS. Table 7-1 PK data of test compound drug in rats

The test system of data set [5] is IL-2 secretion by T cells. In words: IL-2 detection assay in cells (ELISA, pan-T cells isolated from PBMCs). The data set is classed as cell-based. To be noted: IL-2, CD3 antibody-coated plate, 24 hours; 100 nM. How it is done:
9. IL-2 detection assay in cells
Activating effect of compounds on IL-2 secretion by T cells was evaluated using the ELISA method. Frozen PBMCs were thawed, and pan-T cells were isolated and purified using a T cell sorting kit (Stemcell, 17951). The cells were resuspended in 1640 complete medium and incubated in a 37°C&5%CO2 incubator overnight. A 96-well plate coated with an anti-human CD3 antibody (Thermo, 16-0037-38) at a final concentration of 5 µg/mL was incubated at 37°C for 2 h. The overnight-cultured cells were collected by centrifugation, the supernatant was discarded, and the cells were resuspended in 1640 complete medium, and seeded in the CD3 antibody-coated 96-well plate at a density of 10^5cells/well. The compounds at different concentrations were added, and the mixture was incubated in a 37°C&5%CO2 incubator for 24 hours. After the incubation was completed, the resulting mixture was centrifuged at 1000 rpm for 1 minute to collect the supernatant, and IL-2 was detected according to the ELISA instructions. DMSO without compounds was used as the control group to calculate the activation rate of the compounds, and prism was used to fit the activation curve. Maximum activation fold = maximum activation rate/control group. Table 9-1 Results of IL-2 activation by test compounds
For orientation: ELISA stands for enzyme-linked immunosorbent assay.

Where [6] appears, read: ATP working concentration: 1 mM.
Setting [7] is: ATP working concentration: 1 mM, read-out: IC50.

T2 sequence (Q92918 whole entry): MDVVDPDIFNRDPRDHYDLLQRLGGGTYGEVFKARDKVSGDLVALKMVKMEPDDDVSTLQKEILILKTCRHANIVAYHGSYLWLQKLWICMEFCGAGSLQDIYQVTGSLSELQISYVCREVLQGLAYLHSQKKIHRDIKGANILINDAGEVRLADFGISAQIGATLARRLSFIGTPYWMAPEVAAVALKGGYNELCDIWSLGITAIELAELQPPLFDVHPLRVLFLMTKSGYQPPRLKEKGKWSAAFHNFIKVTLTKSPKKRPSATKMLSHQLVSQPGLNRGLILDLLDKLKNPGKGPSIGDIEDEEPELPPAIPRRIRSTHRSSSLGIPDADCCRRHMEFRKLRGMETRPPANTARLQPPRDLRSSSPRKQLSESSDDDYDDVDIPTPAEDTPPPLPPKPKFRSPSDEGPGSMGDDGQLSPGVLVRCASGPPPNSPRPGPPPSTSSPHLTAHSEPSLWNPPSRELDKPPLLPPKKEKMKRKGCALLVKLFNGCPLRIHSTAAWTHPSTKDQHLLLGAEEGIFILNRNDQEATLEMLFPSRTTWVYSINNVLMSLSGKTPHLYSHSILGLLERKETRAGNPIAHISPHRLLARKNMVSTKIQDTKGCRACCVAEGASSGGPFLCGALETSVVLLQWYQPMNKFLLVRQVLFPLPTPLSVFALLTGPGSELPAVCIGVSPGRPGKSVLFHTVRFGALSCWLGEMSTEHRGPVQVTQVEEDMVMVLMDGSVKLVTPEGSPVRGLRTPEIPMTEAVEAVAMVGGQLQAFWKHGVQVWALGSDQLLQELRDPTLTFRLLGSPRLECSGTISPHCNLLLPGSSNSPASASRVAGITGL

Consider `O=C1CCN(c2cc3c(cc2F)N2CCN(CC4CC5(CCN(c6ccc(Nc7ccc(-c8cnc9cc(F)ccn89)c8c7C(=O)NC8)nc6)CC5)C4)C[C@@H]2CC3)C(=O)N1` [Trifluoroacetic acid salt of compound 15], for which, in data set [1], the AUC is 23600 ng·h/mL, the Cmax is 1620 ng/mL and the half-life is 7.64 h. The compound also gave a pIC50 in data set [2] (setting [6]) of over 7.30. Moreover, the DC50 in data set [3] was under 20 nM.
Turning to `O=C1CCN(c2cc3c(cc2F)N2CCN(CC4CC5(CCN(c6ccc(Nc7ccc(-c8cnc9cc(F)ccn89)c8c7C(=O)NC8)nc6)CC5)C4)C[C@H]2CC3)C(=O)N1` [Compound 16], the pIC50 in data set [2] (setting [7]) is over 7.30. The DC50 in data set [3] (read-out: DC50) is under 20 nM.
`O=C1CC[C@H](NC(=O)c2cc3c(cc2F)N2CCN(C4CC5(CCN(c6ccc(Nc7ccc(-c8cnc9cc(F)ccn89)c8c7C(=O)NC8)nc6)CC5)C4)C[C@H]2CC3)C(=O)N1` [Trifluoroacetic acid salt of compound 37] gave a pIC50 in data set [2] (setting [6]) of over 7.30. The DC50 in data set [3] is under 20 nM.
In turn, `O=C1CCN(c2cc3c(cc2F)N2CCN(C4CCN(c5ccc(Nc6ccc(-c7cnc8cc(F)ccn78)c7c6C(=O)NC7)nc5)CC4)C[C@@H]2CC3)C(=O)N1` [Trifluoroacetic acid salt of compound 13] had a pIC50 in data set [2] of over 7.30. In data set [3], this compound came in with a DC50 of under 20 nM.
As for `O=C1CCN(c2cc3c(cc2F)N2CCN(C4CCN(c5ccc(Nc6ccc(-c7cnc8cc(F)ccn78)c7c6C(=O)NC7)nc5)CC4)C[C@H]2CC3)C(=O)N1` [Trifluoroacetic acid salt of compound 14], the pIC50 in data set [2] is over 7.30. In data set [3], this compound had a DC50 of under 20 nM.
In data set [1], `O=C1CCN(c2cc3c(cc2F)N2CCN(C4CC5(CCN(c6ccc(Nc7ccc(-c8cnc9cc(F)ccn89)c8c7C(=O)NC8)nc6)CC5)C4)C[C@@H]2CC3)C(=O)N1` [Trifluoroacetic acid salt of compound 20] showed an exposure (AUC) of 12600 ng·h/mL, a Cmax of 1010 ng/mL and a half-life of 5.51 h. Also, the pIC50 in data set [2] is over 7.30. Further, in data set [3], the DC50 is under 20 nM. In data set [4] (IV, 2.5 mg/kg), this compound showed a clearance of 13.4 mL/min/kg and a half-life of 4.78 h. In addition, in data set [4] (po, i. g., 10 mg/kg), the AUC was found to be 5310 ng·h/mL, the Cmax was found to be 382 ng/mL and the half-life was 5.29 h.
`O=C1CC[C@H](NC(=O)c2cc3c(cc2F)N2CCN(CC4CCN(c5ccc(Nc6ccc(-c7cnc8cc(F)ccn78)c7c6C(=O)NC7)nc5)CC4)C[C@H]2CC3)C(=O)N1` [Trifluoroacetic acid salt of compound 8]: in data set [1], the AUC is 18300 ng·h/mL, the Cmax is 1460 ng/mL and the half-life is 4.38 h. The compound also showed a negative-log IC50 (pIC50) in data set [2] (setting [6]) of over 7.30. This compound also came in with a DC50 in data set [3] of under 20 nM.
As to `O=C1CC[C@H](NC(=O)c2cc3c(cc2F)N2CCN(CC4CC5(CCN(c6ccc(Nc7ccc(-c8cnc9cc(F)ccn89)c8c7C(=O)NC8)nc6)CC5)C4)C[C@H]2CC3)C(=O)N1` [Trifluoroacetic acid salt of compound 36], the pIC50 in data set [2] (setting [6]) was over 7.30. Also, the DC50 in data set [3] is under 20 nM.
The corresponding values for `O=C1CC[C@H](NC(=O)c2cc3c(cc2F)N2CCN(CC4CC5(CCN(c6ccc(Nc7ccc(-c8cnc9cc(F)ccn89)c8c7C(=O)NC8)nc6)CC5)C4)C[C@@H]2CC3)C(=O)N1` [Trifluoroacetic acid salt of compound 34] are over 7.30 and under 20 nM.
The compound `O=C1CC[C@H](NC(=O)c2cc3c(cc2F)N2CCN(C4CCN(c5ccc(Nc6ccc(-c7cnc8cc(F)ccn78)c7c6C(=O)NC7)nc5)CC4)C[C@H]2CC3)C(=O)N1` [Trifluoroacetic acid salt of compound 42] gave a pIC50 in data set [2] of over 7.30. In data set [3], this compound displayed a DC50 of under 20 nM.
As for `O=C1CCC(c2ccc(N3CCN(CC4CCN(c5ccc(Nc6ccc(-c7cnc8cc(F)ccn78)c7c6C(=O)NC7)nc5)CC4)CC3)cc2F)C(=O)N1` (single isomer, unassigned) [Compound 1-1], in data set [5], the “Activation fold at 100 nM concentration” value is reported as over 10. Besides, the pIC50 in data set [2] (setting [7]) is over 7.30.

In general, AUC refers to concentration integrated over time. Low readings indicate low exposure, high ones high exposure. Usually Cmax stands for the highest concentration seen after dosing. Broadly, the half-life is the time needed for the level to fall by half in the phase considered. Usually pIC50 stands for the IC50 on a negative log10 scale, so that one unit is a factor of ten. The term clearance denotes a measure of how efficiently the substance is removed, as volume per time. A lower clearance goes with a low capacity for elimination.
